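In this assay, cells in 96-well plates receive the compound at five concentrations for 48 hours. Endpoints are linearly interpolated between the surrounding concentrations. GI50 = concentration required for 50% inhibition of growth. Definition used: TGI = concentration required for complete inhibition of growth.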
Legend:
Experiment in all cases: NCI-60 cell line screen, 48 h
[1] = tested on: SF-295 CNS
[2] = tested on: BT-549 breast
[3] = tested on: KM12 colon
[4] = tested on: HOP-62 NSCLC
[5] = tested on: OVCAR-8 ovarian
[6] = tested on: TK-10 renal
[7] = tested on: A498 renal
[8] = tested on: MDA-MB-435
[9] = tested on: SNB-19 CNS
[10] = tested on: OVCAR-5 ovarian
[11] = tested on: NCI/ADR-RES ovarian
[12] = tested on: SK-MEL-5 melanoma
[13] = tested on: SF-268 CNS
[14] = tested on: NCI-H460 lung
[15] = tested on: NCI-H226 lung
[16] = tested on: HCT-15 colon
[17] = tested on: ACHN renal
[18] = tested on: M14 melanoma
[19] = tested on: NCI-H23 lung
[20] = tested on: EKVX NSCLC
[21] = tested on: MCF7 breast
[22] = tested on: OVCAR-3 ovarian
[23] = tested on: SR leukemia
[24] = tested on: RPMI-8226 leukemia
[25] = tested on: COLO 205 colon
[26] = tested on: UACC-62 melanoma
[27] = tested on: UACC-257 melanoma
[28] = tested on: MALME-3M melanoma

CC1(C)N=C(N)N=C(N)N1c1ccc(OCc2ccc(S(=O)(=O)F)c(Cl)c2)c(Cl)c1
GI50 [1]: 3.88 µM
TGI [1]: > 100 µM
GI50 [2]: 18.9 µM
TGI [2]: > 100 µM
GI50 [3]: 3.35 µM
TGI [3]: > 100 µM
GI50 [4]: 7.93 µM
TGI [4]: > 100 µM
GI50 [5]: 0.735 µM
TGI [5]: > 100 µM
GI50 [6]: 59.2 µM
TGI [6]: > 100 µM
GI50 [7]: > 100 µM
TGI [7]: > 100 µM
GI50 [8]: 0.558 µM
TGI [8]: > 100 µM
GI50 [9]: 6.76 µM
TGI [9]: > 100 µM
GI50 [10]: > 100 µM
TGI [10]: > 100 µM
GI50 [11]: 60 µM
TGI [11]: > 100 µM
GI50 [12]: 1.03 µM
TGI [12]: > 100 µM
GI50 [13]: 2.85 µM
TGI [13]: > 100 µM
GI50 [14]: 0.426 µM
TGI [14]: > 100 µM
GI50 [15]: 9.72 µM
TGI [15]: > 100 µM
GI50 [16]: 0.586 µM
TGI [16]: > 100 µM
GI50 [17]: 5.48 µM
TGI [17]: > 100 µM
GI50 [18]: 1.52 µM
TGI [18]: > 100 µM
GI50 [19]: 2.09 µM
TGI [19]: > 100 µM
GI50 [20]: > 100 µM
TGI [20]: > 100 µM
GI50 [21]: 0.641 µM
TGI [21]: > 100 µM
GI50 [22]: 4.69 µM
TGI [22]: > 100 µM
GI50 [23]: 0.432 µM
TGI [23]: > 100 µM
GI50 [24]: > 100 µM
TGI [24]: > 100 µM
GI50 [25]: 5.74 µM
TGI [25]: > 100 µM
GI50 [26]: 0.74 µM
TGI [26]: > 100 µM
GI50 [27]: 2.38 µM
TGI [27]: > 100 µM
GI50 [28]: 1.97 µM

— PubChem BioAssay (NCI)
